# Data as given in patent EP2604265A1, “P2x7 antagonists as frontline or adjunctive treatment against status epilepticus” (Royal College of Surgeons in Ireland (RCSI), priority 2011, dated 2013).
# Biological target: T1, P2X7R (Mus musculus, UniProt Q9Z1M0)
# T1 construct: endogenous in cells; host or cells: primary hippocampal neurons from E17 mouse embryos
# T1 sequence (Q9Z1M0 1-595): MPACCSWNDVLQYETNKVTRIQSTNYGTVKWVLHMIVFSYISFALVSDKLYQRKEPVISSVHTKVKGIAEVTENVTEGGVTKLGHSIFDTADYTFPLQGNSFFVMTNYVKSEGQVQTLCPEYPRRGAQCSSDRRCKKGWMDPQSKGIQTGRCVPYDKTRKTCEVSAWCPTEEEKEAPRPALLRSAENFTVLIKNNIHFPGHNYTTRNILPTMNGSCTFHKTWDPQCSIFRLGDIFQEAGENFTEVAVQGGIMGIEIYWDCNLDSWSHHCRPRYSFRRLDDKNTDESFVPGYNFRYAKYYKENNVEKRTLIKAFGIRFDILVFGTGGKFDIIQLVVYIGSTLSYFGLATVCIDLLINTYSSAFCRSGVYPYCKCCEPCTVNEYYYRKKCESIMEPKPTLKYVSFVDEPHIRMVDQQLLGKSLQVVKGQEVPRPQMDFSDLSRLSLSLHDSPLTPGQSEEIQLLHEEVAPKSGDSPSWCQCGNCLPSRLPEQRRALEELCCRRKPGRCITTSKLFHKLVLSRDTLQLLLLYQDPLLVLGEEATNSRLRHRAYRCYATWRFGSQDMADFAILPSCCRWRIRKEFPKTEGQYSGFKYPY
# Experiment: Fura-2 calcium microfluorimetry, BzATP-evoked calcium entry
# Type: cell-based
# Conditions: cultured hippocampal neurons; BzATP 100 µM; BBG 1 µM
# Experimental: Hippocampal neurons were prepared as described previously (Diaz-Hernandez et al., 2008). Briefly, hippocampi were obtained from E17 mouse embryos and, after dissection and washing three times in Ca^2+/Mg^2+-free HBSS, tissue was digested in the same solution with 0.25% trypsin for 15 min at 37°C. Hippocampi were then washed three times in Ca^2+/Mg^2+-free HBSS and dissociated with a firepolished Pasteur pipette. Cells were counted, resuspended in plating medium (MEM, 10% fetal bovine serum, 0.6% glucose) and plated at a density of 5,000 cells/cm^2 on poly-L-lysine coated coverslips (1 mg/ml). After plating, neurons were cultured for 24-72 h in neuronal culture medium (Neurobasal, B-27, glutamax-I). For biochemical experiments, hippocampal neurons were plated on polylysine-coated (1 mg/ml) 60-mm plates at a density of 200,000 cells/cm^2, and cultured for 72 h in neuronal culture medium. AraC was added at a final concentration of 5 µM after 2 days in culture.
# Calcium microfluorimetric analysis in single neurons was carried out according to (Diaz-Hernandez et al., 2001). […]
# Neurons were visualized using a Plan Fluor x40 S/0.5-1.3 oil lens. […] The background was subtracted at each wavelength and the 340 / 380 ratio was calculated. The data are represented as the normalized F340/F380 fluorescence ratio, which increases as [Ca^2+]i increases.
smiles,measurement,value
"CCOc1ccc(Nc2ccc(C(=C3C=CC(=[N+](CC)Cc4cccc(S(=O)(=O)[O-])c4)C=C3C)c3ccc(N(CC)Cc4cccc(S(=O)(=O)O)c4)cc3C)cc2)cc1 [BBG, Brilliant Blue G]",P2X7R-gated (BzATP-induced) calcium entry,effective to block
